Experimental findings from PMC6472029, “Steroids from the Deep-Sea-Derived Fungus Penicillium granulatum MCCC 3A00475 Induced Apoptosis via Retinoid X Receptor (RXR)-α Pathway” (Marine Drugs, 2019) are described below.

In the test the target is T1, RXRα (Homo sapiens, UniProt P19793).
T1 construct: gene RXRA; RXRα-LBD (N-terminal His-tagged)
T1 sequence (P19793 223-462 limits assumed): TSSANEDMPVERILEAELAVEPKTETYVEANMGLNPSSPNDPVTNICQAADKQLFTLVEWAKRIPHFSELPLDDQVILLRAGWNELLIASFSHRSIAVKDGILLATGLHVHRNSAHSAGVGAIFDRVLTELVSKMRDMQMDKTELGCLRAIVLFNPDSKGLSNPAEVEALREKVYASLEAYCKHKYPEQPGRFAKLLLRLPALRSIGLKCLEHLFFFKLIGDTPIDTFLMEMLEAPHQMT
Description: fluorescence quenching with purified RXRα-LBD. Format: binding.

Regarding `CC(=O)O[C@H]1C[C@H]2[C@H]3[C@H]([C@@H](O)C[C@]2(C)[C@H]1[C@H](C)C=C[C@H](C)C(C)C)[C@@]1(C)CC[C@H](O)CC1=C[C@@H]3O` [compound 2, 16β-acetoxy-3β,7β,11β-trihydroxyergost-5,22-diene], the Kd (as a rule, the equilibrium constant for the complex coming apart) turned out to be 13.8 µM.

In turn, `CC(=O)O[C@H]1C[C@H]2[C@@H]3[C@@H](O)[C@@H](O)[C@H]4C[C@@H](O)CC[C@]4(C)[C@H]3[C@@H](O)C[C@]2(C)[C@H]1[C@H](C)/C=C/[C@H](C)C(C)C` [compound 6, penicisteroid A] registered a Kd of 12.9 µM.
